Several values for one entry are separate records, joined by “and”; a condition that tells them apart may be missing. Equal values may be shown once.

Here are results for three molecules from the NIST ThermoML archive (doi:10.1016/j.jct.2015.11.013).

The nature of this data set: cn = amount concentration of the nth substance listed, in mol/dm3. The settings on record: 298.15 K, 101.3 kPa, Liquid, Taylor dispersion method.

For `CCCCCCCC(=O)O` [octanoic acid] + O, the binary diffusion coefficient runs as follows: (c1 = 0.00075) 1.19e-09 m2/s; (c1 = 0.001) 1.08e-09 m2/s; (c1 = 0.0015) 9.5e-10 m2/s; (c1 = 0.002) 8.72e-10 m2/s; (c1 = 0.0025) 8.49e-10 m2/s and 8.5e-10 m2/s.
For the molecule `CCCCCCCC(=O)[O-].[Na+]` [sodium octanoate] + O, the binary diffusion coefficient stood at 8.56e-10 m2/s (c1 = 0.025); 8.54e-10 m2/s (c1 = 0.05); 8.52e-10 m2/s (c1 = 0.075); 8.51e-10 m2/s (c1 = 0.085); 8.5e-10 m2/s (c1 = 0.1).
As to `OC[C@H]1O[C@@H]2O[C@H]3[C@H](O)[C@@H](O)[C@@H](O[C@H]4[C@H](O)[C@@H](O)[C@@H](O[C@H]5[C@H](O)[C@@H](O)[C@@H](O[C@H]6[C@H](O)[C@@H](O)[C@@H](O[C@H]7[C@H](O)[C@@H](O)[C@@H](O[C@H]1[C@H](O)[C@H]2O)O[C@@H]7CO)O[C@@H]6CO)O[C@@H]5CO)O[C@@H]4CO)O[C@@H]3CO` [α-cyclodextrin] + O, the binary diffusion coefficient (c1 = 0.0025) is 3.53e-10 m2/s.
